# From ChEMBL document CHEMBL4033638, “Effect of natural and semi-synthetic cadinanes from Heterotheca inuloides on NF-κB, Nrf2 and STAT3 signaling pathways and evaluation of their in vitro cytotoxicity in human cancer cell lines” (Bioorg Med Chem, 2017)
# Activity calls are given as the source filed them. No cut-off for these calls is given here.
# Tested on: HCT-15
# Test: Antiproliferative activity against human HCT15 cells at 50 uM after 48 hrs by sulforhodamine B assay relative to control
# Assay type: functional
# Conditions: HCT-15, 48 h
row,SMILES,inhibition at 50 µM [%]
1,Cc1cccc(C(=O)Oc2cc3c(C)ccc(C(C)C)c3cc2C)c1,27.6
2,CC1=CC[C@H](C(C)C)c2cc(C)c(OC(=O)c3ccccc3)cc21,49.5
3,Cc1cc2c(C(C)C)ccc(C)c2cc1OC(=O)c1ccccc1,72
4,CC1=CC[C@H](C(C)C)c2cc(C)c(OC(=O)c3cccc([N+](=O)[O-])c3)cc21,45.9
5,CC1=CC[C@H](C(C)C)c2cc(C)c(OC(=O)c3cccc(C)c3)cc21,5.3

# Tested on: U-251
# Test: Antiproliferative activity against human U251 cells at 50 uM after 48 hrs by sulforhodamine B assay relative to control
# Assay type: functional
# Conditions: U-251, 48 h
row,SMILES,inhibition at 50 µM [%]
1,Cc1cccc(C(=O)Oc2cc3c(C)ccc(C(C)C)c3cc2C)c1,5.2
2,CC1=CC[C@H](C(C)C)c2cc(C)c(OC(=O)c3ccccc3)cc21,25.8
3,Cc1cc2c(C(C)C)ccc(C)c2cc1OC(=O)c1ccccc1,41.5
4,CC1=CC[C@H](C(C)C)c2cc(C)c(OC(=O)c3cccc([N+](=O)[O-])c3)cc21,44
5,CC1=CC[C@H](C(C)C)c2cc(C)c(OC(=O)c3cccc(C)c3)cc21,16.8

# Tested on: SK-LU-1
# Test: Antiproliferative activity against human SK-LU-1 cells at 50 uM after 48 hrs by sulforhodamine B assay relative to control
# Assay type: functional
# Conditions: not given
row,SMILES,inhibition
1,Cc1cccc(C(=O)Oc2cc3c(C)ccc(C(C)C)c3cc2C)c1,inactive
2,CC1=CC[C@H](C(C)C)c2cc(C)c(OC(=O)c3cccc(C)c3)cc21,inactive

# Same assay, conditions: SK-LU-1, 48 h
row,SMILES,inhibition at 50 µM [%]
1,CC1=CC[C@H](C(C)C)c2cc(C)c(OC(=O)c3ccccc3)cc21,37
2,Cc1cc2c(C(C)C)ccc(C)c2cc1OC(=O)c1ccccc1,63
3,CC1=CC[C@H](C(C)C)c2cc(C)c(OC(=O)c3cccc([N+](=O)[O-])c3)cc21,60.4

# Tested on: MCF7
# Test: Antiproliferative activity against human MCF7 cells at 50 uM after 48 hrs by sulforhodamine B assay relative to control
# Assay type: functional
# Conditions: MCF7, 48 h
row,SMILES,inhibition at 50 µM [%]
1,Cc1cccc(C(=O)Oc2cc3c(C)ccc(C(C)C)c3cc2C)c1,50.4
2,CC1=CC[C@H](C(C)C)c2cc(C)c(OC(=O)c3ccccc3)cc21,60.7
3,Cc1cc2c(C(C)C)ccc(C)c2cc1OC(=O)c1ccccc1,51
4,CC1=CC[C@H](C(C)C)c2cc(C)c(OC(=O)c3cccc([N+](=O)[O-])c3)cc21,29.3
5,CC1=CC[C@H](C(C)C)c2cc(C)c(OC(=O)c3cccc(C)c3)cc21,54.9

# Molecular target: T1, Nuclear factor erythroid 2-related factor 2 (Homo sapiens) (UniProt Q16236)
# T1 sequence (whole entry): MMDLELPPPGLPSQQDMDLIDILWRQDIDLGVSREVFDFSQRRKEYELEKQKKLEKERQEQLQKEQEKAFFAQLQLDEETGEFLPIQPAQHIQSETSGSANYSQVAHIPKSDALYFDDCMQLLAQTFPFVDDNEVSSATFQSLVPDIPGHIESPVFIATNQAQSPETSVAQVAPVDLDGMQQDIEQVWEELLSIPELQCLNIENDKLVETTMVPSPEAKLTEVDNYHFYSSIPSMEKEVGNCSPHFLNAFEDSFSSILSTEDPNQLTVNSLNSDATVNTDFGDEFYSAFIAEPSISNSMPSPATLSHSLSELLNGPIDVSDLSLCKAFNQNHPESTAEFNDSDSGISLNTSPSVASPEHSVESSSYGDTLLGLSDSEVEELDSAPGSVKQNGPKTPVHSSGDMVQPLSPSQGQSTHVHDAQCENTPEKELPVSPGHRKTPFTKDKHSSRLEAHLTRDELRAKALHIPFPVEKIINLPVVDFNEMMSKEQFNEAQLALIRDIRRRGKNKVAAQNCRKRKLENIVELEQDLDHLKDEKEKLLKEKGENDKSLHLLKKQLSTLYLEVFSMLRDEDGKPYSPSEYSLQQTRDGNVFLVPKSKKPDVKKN
# Test: Activation of Nrf2 in human HaCaT-ARE-Luc cells at 50 uM after 6 hrs by luciferase reporter gene assay relative to control
# Assay type: cell-based
# Conditions: not given
row,SMILES,fold change (FC)
1,CC1=CC[C@H](C(C)C)c2cc(C(=O)O)ccc21,1.8
2,Cc1cc2c(C(C)C)ccc(C=O)c2cc1O,1.6
3,CC(C)[C@H]1CC[C@@](C)(O)c2ccc(C(=O)O)cc21,1.7
4,COc1c(C(C)C)cc(C)c2ccc(C)cc12,1.9
5,CC1=C2CCC(C(=O)O)=C[C@@H]2[C@@H](C(C)C)CC1,1.4
6,Cc1ccc2c(c1)C(=O)C(C(C)C)=C[C@@]2(C)O,1.7
7,CC1=CC[C@H](C(C)C)[C@H]2C=C(C(=O)O)CC=C12,1.9
8,CC1=C[C@](O)(C(C)C)C(=O)c2cc(C)c(O)cc21,1.3

# Second part, the compound after the results:
row,fold change (FC),SMILES
1,1.8,Cc1cccc(C(=O)Oc2cc3c(C)ccc(C(C)C)c3cc2C)c1
2,6.6,CC1=CC[C@H](C(C)C)c2cc(C)c(OC(=O)c3ccccc3)cc21
3,1.9,Cc1cc2c(C(C)C)ccc(C)c2cc1OC(=O)c1ccccc1
4,1.5,CC1=CC[C@H](C(C)C)c2cc(C)c(OC(=O)c3cccc([N+](=O)[O-])c3)cc21
5,1.7,CC1=CC[C@H](C(C)C)c2cc(C)c(OC(=O)c3cccc(C)c3)cc21

# Tested on: PC-3
# Test: Antiproliferative activity against human PC3 cells at 50 uM after 48 hrs by sulforhodamine B assay relative to control
# Assay type: functional
# Conditions: PC-3, 48 h
row,SMILES,inhibition at 50 µM [%]
1,Cc1cccc(C(=O)Oc2cc3c(C)ccc(C(C)C)c3cc2C)c1,52.4
2,CC1=CC[C@H](C(C)C)c2cc(C)c(OC(=O)c3ccccc3)cc21,22.5
3,Cc1cc2c(C(C)C)ccc(C)c2cc1OC(=O)c1ccccc1,21.2
4,CC1=CC[C@H](C(C)C)c2cc(C)c(OC(=O)c3cccc([N+](=O)[O-])c3)cc21,36.9
5,CC1=CC[C@H](C(C)C)c2cc(C)c(OC(=O)c3cccc(C)c3)cc21,38.6

# Tested on: K562
# Test: Antiproliferative activity against human K562 cells at 50 uM after 48 hrs by sulforhodamine B assay relative to control
# Assay type: functional
# Conditions: not given
row,SMILES,inhibition
1,CC1=CC[C@H](C(C)C)c2cc(C)c(OC(=O)c3ccccc3)cc21,inactive
2,CC1=CC[C@H](C(C)C)c2cc(C)c(OC(=O)c3cccc(C)c3)cc21,inactive

# Same assay, conditions: K562, 48 h
row,SMILES,inhibition at 50 µM [%]
1,Cc1cccc(C(=O)Oc2cc3c(C)ccc(C(C)C)c3cc2C)c1,17.1
2,Cc1cc2c(C(C)C)ccc(C)c2cc1OC(=O)c1ccccc1,44.3
3,CC1=CC[C@H](C(C)C)c2cc(C)c(OC(=O)c3cccc([N+](=O)[O-])c3)cc21,15.9

# Molecular target: Signal transducer and activator of transcription 3 (Homo sapiens) (UniProt P40763)
# Test: Inhibition of IFNgamma-stimulated STAT3 (unknown origin) activation expressed in human HeLa cells at 50 uM after 6 hrs by luciferase reporter gene assay relative to control
# Assay type: cell-based
# Conditions: not given
# Signal transducer and activator of transcription 3 (Homo sapiens), sequence (P40763 whole entry): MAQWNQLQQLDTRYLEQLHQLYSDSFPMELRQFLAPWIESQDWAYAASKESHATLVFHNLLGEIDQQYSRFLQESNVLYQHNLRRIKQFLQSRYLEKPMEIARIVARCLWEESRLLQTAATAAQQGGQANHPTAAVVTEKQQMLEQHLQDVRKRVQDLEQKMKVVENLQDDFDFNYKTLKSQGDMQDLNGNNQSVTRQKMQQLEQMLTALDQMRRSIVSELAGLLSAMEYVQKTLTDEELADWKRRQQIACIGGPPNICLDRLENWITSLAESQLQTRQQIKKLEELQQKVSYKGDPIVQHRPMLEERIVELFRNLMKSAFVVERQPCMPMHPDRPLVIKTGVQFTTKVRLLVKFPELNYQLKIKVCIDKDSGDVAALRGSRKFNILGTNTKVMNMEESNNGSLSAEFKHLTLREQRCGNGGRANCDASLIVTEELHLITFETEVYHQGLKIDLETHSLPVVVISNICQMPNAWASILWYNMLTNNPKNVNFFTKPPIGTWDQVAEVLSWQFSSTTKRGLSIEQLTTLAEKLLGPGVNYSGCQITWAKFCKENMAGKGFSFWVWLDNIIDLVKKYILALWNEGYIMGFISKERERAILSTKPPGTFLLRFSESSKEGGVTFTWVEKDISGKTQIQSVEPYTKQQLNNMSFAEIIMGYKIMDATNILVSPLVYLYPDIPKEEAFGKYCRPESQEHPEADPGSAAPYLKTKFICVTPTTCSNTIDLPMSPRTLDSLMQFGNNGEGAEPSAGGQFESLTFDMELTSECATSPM
row,SMILES,inhibition [%]
1,CC1=CC[C@H](C(C)C)c2cc(C(=O)O)ccc21,2.9
2,Cc1cc2c(C(C)C)ccc(C=O)c2cc1O,3.5
3,CC(C)[C@H]1CC[C@@](C)(O)c2ccc(C(=O)O)cc21,3.8
4,COc1c(C(C)C)cc(C)c2ccc(C)cc12,0.9
5,CC1=C2CCC(C(=O)O)=C[C@@H]2[C@@H](C(C)C)CC1,3.8
6,Cc1ccc2c(c1)C(=O)C(C(C)C)=C[C@@]2(C)O,2.4
7,CC1=CC[C@H](C(C)C)[C@H]2C=C(C(=O)O)CC=C12,3.6
8,CC1=C[C@](O)(C(C)C)C(=O)c2cc(C)c(O)cc21,2.2

# Results, then the compound that gave them:
row,inhibition [%],SMILES
1,2,Cc1cccc(C(=O)Oc2cc3c(C)ccc(C(C)C)c3cc2C)c1
2,2.4,CC1=CC[C@H](C(C)C)c2cc(C)c(OC(=O)c3ccccc3)cc21
3,0.5,Cc1cc2c(C(C)C)ccc(C)c2cc1OC(=O)c1ccccc1
4,3.2,CC1=CC[C@H](C(C)C)c2cc(C)c(OC(=O)c3cccc([N+](=O)[O-])c3)cc21
5,2.3,CC1=CC[C@H](C(C)C)c2cc(C)c(OC(=O)c3cccc(C)c3)cc21

# Tested on: PC-3
# Test: Antiproliferative activity against human PC3 cells after 48 hrs by sulforhodamine B assay
# Assay type: functional, cell-based
# Conditions: PC-3, 48 h
row,IC50 [µM],SMILES
1,47.1,Cc1cccc(C(=O)Oc2cc3c(C)ccc(C(C)C)c3cc2C)c1

# Tested on: not listed separately
# Test: Inhibition of TNFalpha-stimulated NFkappaB (unknown origin) expressed in mouse NIH-3T3-KBFLuc cells at 50 uM after 6 hrs by luciferase reporter gene assay relative to control
# Assay type: cell-based
# Conditions: Homo sapiens
row,SMILES,inhibition [%]
1,CC1=CC[C@H](C(C)C)c2cc(C(=O)O)ccc21,7.3
2,Cc1cc2c(C(C)C)ccc(C=O)c2cc1O,40.1
3,CC(C)[C@H]1CC[C@@](C)(O)c2ccc(C(=O)O)cc21,6.7
4,COc1c(C(C)C)cc(C)c2ccc(C)cc12,26.5
5,CC1=C2CCC(C(=O)O)=C[C@@H]2[C@@H](C(C)C)CC1,5.9
6,Cc1ccc2c(c1)C(=O)C(C(C)C)=C[C@@]2(C)O,11.1
7,CC1=CC[C@H](C(C)C)[C@H]2C=C(C(=O)O)CC=C12,12.3
8,Cc1cccc(C(=O)Oc2cc3c(C)ccc(C(C)C)c3cc2C)c1,4.8
9,CC1=CC[C@H](C(C)C)c2cc(C)c(OC(=O)c3ccccc3)cc21,47.2
10,CC1=C[C@](O)(C(C)C)C(=O)c2cc(C)c(O)cc21,28.8
11,Cc1cc2c(C(C)C)ccc(C)c2cc1OC(=O)c1ccccc1,34.5
12,CC1=CC[C@H](C(C)C)c2cc(C)c(OC(=O)c3cccc([N+](=O)[O-])c3)cc21,3.5
13,CC1=CC[C@H](C(C)C)c2cc(C)c(OC(=O)c3cccc(C)c3)cc21,44.2
